Entries after “also recorded” stand apart in the source; their conditions may differ.
Assays:
[1] = system: ER-dependent transcription; assay: ERE-luciferase T47D reporter, ER-dependent transcriptional activity; format: cell-based, human; settings: T47D ERE-luciferase, 10 nM with 2 nM 17β-estradiol
Method: FIGS. 20A-20C show biologic activity of selected SERD candidates. […] ER-positive MCF-7 cells were treated in phenol-red free RPMI 1640 without FBS and containing vehicle control (CON) or 100 nM concentrations of either fulvestrant (FX) or antiestrogens 105, 109, 121, 140, 151, 160 or SERD128 in vitro. After 4 hours, cells were harvested and processed for PAGE and Western immunoblots using ERα antibody (1D5, Thermofisher Scientific). RPL13A was used as a loading control. […] Cells were dosed with either E2 alone or with SERDs combined with E2 in phenol redfree medium with 0.1% dextran-coated charcoal-treated FBS in luminometer plates. Data are presented as relative light units (RLU) relative to that of E2 alone in three replicate assays (4 wells per replicate) f SEM. Treatment with E2 alone induced a 12-fold induction of ER-dependent luciferase activity quantified as RLU relative to vehicle control-treated samples.
A stable ER-positive T47D ERE luciferase reporter cell line, in which the ERE and the reporter luciferase gene are consistently expressed in the cell line were used in this study (Signosis). […] Lysate was mixed 1:1 with luciferase substrate (Promega), and luminescence was measured using a MLX microtiter plate luminometer (Dynex) and quantified as relative light units (RLU) according to established procedures. Total protein was quantified using BioRad Protein Assay (BioRad).

[2] = system: MCF-7 cells; assay: Cell proliferation assay, MCF-7 (MCF-7/PAR); format: cell-based, human; settings: 10 nM with 2 nM estradiol-17β, 48 hr
[3] = system: MCF-7/HER2 cells; assay: Cell proliferation assay, MCF-7 with HER2-overexpression; format: cell-based, human; settings: MCF-7/HER2, 10 nM with 2 nM estradiol-17β, 48 hr
[4] = system: MCF-7/TMR cells; assay: Cell proliferation assay, MCF-7 with tamoxifen resistance; format: cell-based, human; settings: 10 nM with 2 nM estradiol-17β, 48 hr
[5] = system: MCF-7 human breast tumor xenografts; assay: MCF-7 human breast tumor xenografts in nude mice; format: in vivo; settings: 15 and 75 mg/kg once a day by oral gavage for 28 days
[6] = system: STAT3; assay: Phosphorylated STAT3 in G-MDSC subpopulations, flow cytometry; format: cell-based, human; settings: 1 μM in normal medium with GM-CSF and IL6, 6 days
Method: Bone marrow cells from three breast cancer patients were incubated with GM-CSF and IL6 in the following groups: normal medium (contains estradiol) in the presence of vehicle (CON), 1 μM fulvestrant (FULV) or 1 μM S128. After 6 days, cells were subjected to flow cytometry using an antibody directed to phosphorylated STAT3 (p-STAT; 1).
FIGS. 22A-22B show expansion of MDSCs is dependent on estrogen signaling and reversed by antiestrogens. […] Retrospectively-collected BM cells from de-identified BC patients were purified by established methods including red blood cell lysis and Ficoll gradients and then incubated with GM-CSF and IL-6 for 6 days in either regular RPMI medium+15% FBS (NM) (contains estrogens), NM with antiestrogens (FULV or SERD128) or in phenol red-free medium with 15% charcoal coated-dextran treated FBS (EFM) (estrogen-depleted) with or without the addition of 100 nM estradiol-17β (EFM+E2). […]
Human myeloid-derived suppressor cells were expanded from bone marrow (BM) specimens of BC patients after standard Ficoll gradient purification and red blood cell lysis. […] After 6 days of culture, cells were harvested, stained with a 14 antibody panel including anti-phospho-STAT3 (pSTAT3) and analyzed by flow cytometry with an LSRII with a 5 lasers (UV, violet, blue, green-yellow and red). […]

[7] = Screen of SERD candidates in antitumor assays, comparison with fulvestrant; settings: a number of antitumor assays
Excerpt: We designed, synthesized and screened more than 65 new SERD candidates, all of which have the general structure shown in 1′, namely 11β-aryloxy estradiols, with a basic amine positioned at the 4-position of the aryl ring (FIG. 16). The basic amine is connected to the aryl unit either directly or via a spacer that varies from 3-6 atoms. […] We note that this new class of steroid-like SERDs lack the prototypical side chain (as in fulvestrant) widely used to design other drugs with ERα antagonism, but these SERD candidates generate a full antagonist profile and induce significant ERα down-regulation, likely similar to significant ‘indirect’ receptor antagonism as reported in previous independent studies of 11β-substitutions in ERα [51, 52] and other structural changes as in an independent report.

## C[C@]12C[C@H](Oc3ccc(N)c(C(F)(F)F)c3)[C@@H]3c4ccc(O)cc4CC[C@H]3[C@@H]1CC[C@@H]2O [SERD128, (8S,9S,11S,13S,14S,17S)-11-(4-Amino-3-(trifluoromethyl)phenoxy)-13-methyl-7,8,9,11,12,13,14,15,16,17-decahydro-6H-cyclopenta[a]phenanthrene-3,17-diol]
[1]
  ER-dependent luciferase activity (RLU relative to E2 alone): comparable to that of the pure antiestrogen fulvestrant
[2]
  cell proliferation (% of estradiol-treated controls): significantly blocked proliferation; also recorded: significantly inhibited; also recorded: antiproliferative action
[3]
  cell proliferation (% of estradiol-treated controls): significantly blocked proliferation; also recorded: antiproliferative action
[4]
  cell proliferation (% of estradiol-treated controls): significantly blocked proliferation; also recorded: antiproliferative action
[5]
  tumor growth (tumor volume): inhibits growth of human breast tumor xenografts in vivo; also recorded: significantly inhibited tumor growth in MCF-7 xenograft models in a dose-dependent manner; also recorded: inhibit the growth of human MCF-7 breast tumor xenografts in vivo in a dose-dependent manner; also recorded: potent biologic action in blocking the progression of breast tumors in vivo via an oral route of administration
[6]
  p-STAT3 median fluorescence intensity in G-MDSC: blocks phosphorylation/activation of STAT3; also recorded: especially effective in blocking the phosphorylation and activation of STAT3
[6]; listed as S128
  p-STAT3 median fluorescence intensity in G-MDSC: blocks phosphorylation/activation of STAT3; also recorded: inhibits the STAT signaling pathway
[7]
  activity relative to fulvestrant: more potent than fulvestrant

Reference: patent US20220133747A1, “ESTROGEN RECEPTOR INHIBITORS AND USES THEROF” (The Regents of the University of California, priority 2018, published 2022)
